A short description of data set [1]: Stability in human liver microsomes. In kind it is in vitro ADME. To be noted: 37° C., NADPH. An outline of the steps: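 Compound from a 100 μM working solution was preincubated 10 min at 37 °C with human liver microsomes (added at 3.33 mg/mL) in 100 mM potassium phosphate. Incubation then ran 60 min at 37 °C with NADPH (2.85 mM cofactor solution), alongside a no-cofactor 60-min control and a 0-min sample. Parent compound was quantified by LC-MS/MS after acetonitrile quench for half-life.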

Data set [2] in a line: Stability in mouse liver microsomes. Type of data set: in vitro ADME. Put shortly:
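Mouse liver microsomes, run by the same procedure as for human microsomes: 100 μM working solution pre-incubated with microsomes in 100 mM potassium phosphate buffer for 10 min at 37° C, then incubated 60 min at 37° C with NADPH cofactor, plus a no-cofactor control. Remaining compound quantified by LC-MS/MS.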
Background: Liver microsomes are vesicles of endoplasmic reticulum, rich in cytochrome P450 enzymes.

The test system of data set [3] is SREBP. As to the kind of experiment: Reporter Screening Assay (SRE-luciferase reporter, HepG2). In kind it is cell-based. The note with it: Homo sapiens; SRE-luciferase reporter HepG2 cells, 24 hours, 0.01 uM to 10 uM; read-out: I: Reporter Screening Assay (Ave EC50 (nM)). On the procedure: Reporter Screening Assay: This assay was used to evaluate the effect on transcriptional activity SREBP of selected compounds using an SRE-luciferase reporter construct. On day 1, 10,000 cells were seeded in a 96 well (white) plate as per the plate map in Growth media without antibiotics. Cells were incubated at 37° C. for 8 hours. After 8 hours, cells were washed with DPBS for complete removal of FBS. DPBS was completely removed and Growth media was replaced with phenol free treatment medium (90 μl) with different FBS concentrations. The cells were then incubated at 37° C. for 24 hours with varying doses (0.01 uM to 10 uM) of compounds. Then a Luciferase assay was performed.
Reagents for performing Luciferase assay were stored at −20° C. To a tube of lyophilized assay substrate was added 1 mL Substrate Solvent and mixed well. The Substrate tube after reconstitution was covered with aluminum foil so as to keep it protected from light. The assay buffer was thawed to room temperature. To 20 mL Assay Buffer was added 200 μL of reconstituted 100× Substrate and mixed well. The reconstituted substrate as well as the assay solution (buffer+substrate) was protected from light throughout the procedure by keeping it covered with aluminum foil. Using a multi-channel pipette, 100 μL Assay Solution (buffer+substrate) was added directly to each sample well in Plate 1, which was incubated for 30 min (plate was covered with aluminum foil). After 30 min incubation, the plate was read for total luminescence. Each well was read for 2 seconds in a plate luminometer. (Microplate reader Envision Microplate reader from Perkin Elmer). Precaution was taken to incubate plate exactly for 30 min prior to reading on the plate reader.
SREBPv1 Reporter cell line: HepG2—#32251. Growth Medium: MEM (Corning 10-010), 10% FBS, 1% GlutaMax (Invitrogen Catalog #35050061), […] (Invitrogen Catalog # A1113803) and 1% Penicillin-Streptomycin (Pen-Strep). Treatment Media: Phenol-free MEM (Invitrogen Catalog #51200-038) and 1% GlutaMax (Invitrogen Catalog #35050061). Luciferase Assay: LightSwitch Luciferase Assay Kit (Catalog #32032). LDH assay: Pierce LDH Cytotoxicity Assay Kit (Catalog # SD249616).
(A reporter such as luciferase makes a cellular process visible.)

The values that follow come from patent US20220056018A1, “SREBP INHIBITORS COMPRISING A THIOPHENE CENTRAL RING” (Capulus Therapeutics, LLC, priority 2019, published 2022).

What is called EC50 is the concentration at which the effect is half-maximal. Consider `CC(C)(O)Cc1cc(-c2cc(-c3ccc(NS(C)(=O)=O)cc3Cl)sc2F)ccn1` [Compound I-9085, N-(3-chloro-4-(5-fluoro-4-(2-(2-hydroxy-2-methylpropyl)pyridin-4-yl)thiophen-2-yl)phenyl)methanesulfonamide], for which the “percent of compound remaining after 60 min in human liver microsomes” value (shortened to “percent of compound remaining”) in data set [1] was “+++ (>60.1 = +++)”. Also, in data set [2], the “percent parent remaining after 60 min in liver microsomes” value (“percent parent remaining after 60 min” for short) is “+++ (>60.1 = +++)”. Moreover, in data set [3], the concentration giving a half-maximal response (EC50) is > 500 nM.
For `CC(O)(CO)c1cc(-c2csc(-c3ccc(NS(C)(=O)=O)cc3Cl)c2)ccn1` (stereo not drawn) [Compound I-9088, N-(3-chloro-4-(4-(2-(1,2-dihydroxypropan-2-yl)pyridin-4-yl)thiophen-2-yl)phenyl)methanesulfonamide], the “percent of compound remaining” value in data set [1] was “+++ (>60.1 = +++)”. Also, the “percent parent remaining after 60 min” value in data set [2] was “+++ (>60.1 = +++)”. The EC50 in data set [3] was > 500 nM.
Regarding `Cc1sc(-c2ccc(NS(C)(=O)=O)cc2Cl)cc1-c1ccnc(CC(C)(C)O)c1` [Compound I-9091, N-(3-chloro-4-(4-(2-(2-hydroxy-2-methylpropyl)pyridin-4-yl)-5-methylthiophen-2-yl)phenyl)methanesulfonamide], the “percent of compound remaining” value in data set [1] is listed as “+++ (>60.1 = +++)”. In addition, the “percent parent remaining after 60 min” value in data set [2] was “+++ (>60.1 = +++)”. The EC50 in data set [3] was > 500 nM.
Take `CS(=O)(=O)Nc1ccc(-c2cc(-c3ccnc(O[C@@H]4COC[C@@H]4O)c3)cs2)c(Cl)c1` [Compound I-9108, N-(3-chloro-4-(4-(2-(((3R,4S)-4-hydroxytetrahydrofuran-3-yl)oxy)pyridin-4-yl)thiophen-2-yl)phenyl)methanesulfonamide]: the “percent of compound remaining” value in data set [1] was “+++ (>60.1 = +++)”. Moreover, the “percent parent remaining after 60 min” value in data set [2] is “+++ (>60.1 = +++)”. Moreover, the EC50 in data set [3] was > 500 nM.
